Assay results: ChEMBL document CHEMBL5260859, “Discovery and structure-activity relationship study of 2-piperazinyl-benzothiazole derivatives as potent and selective PPARδ agonists” (Bioorg Med Chem, 2023)

Legend:
[1] = molecular target: T1, Peroxisome proliferator-activated receptor delta (Mus musculus, UniProt P35396); assay: Agonist activity at Gal4-fused mouse PPAR-delta ligand binding domain expressed in CHO-K1 cells assessed as receptor transactivation incubated for 24 to 48 hrs by luciferase reporter gene assay; type: cell-based
T1 sequence (P35396 whole entry): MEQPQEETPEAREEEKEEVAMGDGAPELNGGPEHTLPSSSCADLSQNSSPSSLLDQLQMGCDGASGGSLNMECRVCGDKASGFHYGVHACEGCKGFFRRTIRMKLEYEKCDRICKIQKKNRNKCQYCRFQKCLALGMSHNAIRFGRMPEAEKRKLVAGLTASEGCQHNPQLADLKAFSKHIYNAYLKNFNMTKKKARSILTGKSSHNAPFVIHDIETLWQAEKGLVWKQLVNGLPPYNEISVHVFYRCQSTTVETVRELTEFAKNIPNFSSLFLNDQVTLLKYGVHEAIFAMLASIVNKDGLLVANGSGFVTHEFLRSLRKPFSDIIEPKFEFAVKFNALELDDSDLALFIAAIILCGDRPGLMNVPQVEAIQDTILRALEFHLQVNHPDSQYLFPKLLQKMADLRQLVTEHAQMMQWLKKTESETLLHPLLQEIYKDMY

Mus musculus = organism: Mus musculus; assay: Selectivity ratio of EC50 for agonist activity at Gal4-fused mouse PPAR-gamma ligand binding domain expressed in CHO-K1 cells to EC50 for agonist activity at Gal4-fused mouse PPAR-delta ligand binding domain expressed in CHO-K1 cells; type: cell-based
[2] = molecular target: T2, Peroxisome proliferator-activated receptor alpha (Homo sapiens, UniProt Q07869); assay: Agonist activity at Gal4-fused human PPAR-alpha ligand binding domain expressed in CHO-K1 cells assessed as receptor transactivation incubated for 24 to 48 hrs by luciferase reporter gene assay; type: cell-based
T2 sequence (Q07869 whole entry): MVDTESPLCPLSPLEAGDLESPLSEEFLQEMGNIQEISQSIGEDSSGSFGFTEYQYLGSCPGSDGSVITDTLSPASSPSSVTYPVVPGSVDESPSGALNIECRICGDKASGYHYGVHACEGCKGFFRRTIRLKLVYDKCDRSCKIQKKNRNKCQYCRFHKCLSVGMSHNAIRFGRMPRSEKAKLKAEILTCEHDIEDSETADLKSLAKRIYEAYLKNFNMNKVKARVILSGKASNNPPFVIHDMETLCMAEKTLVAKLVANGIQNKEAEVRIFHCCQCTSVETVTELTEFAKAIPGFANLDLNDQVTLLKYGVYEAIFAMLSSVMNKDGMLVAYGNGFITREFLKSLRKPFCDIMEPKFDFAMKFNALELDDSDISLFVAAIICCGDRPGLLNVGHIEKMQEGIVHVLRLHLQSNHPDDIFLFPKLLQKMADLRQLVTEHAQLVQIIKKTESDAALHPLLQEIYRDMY

[3] = molecular target: T3, Peroxisome proliferator-activated receptor alpha (Mus musculus, UniProt P23204); assay: Agonist activity at Gal4-fused mouse PPAR-alpha ligand binding domain expressed in CHO-K1 cells assessed as receptor transactivation incubated for 24 to 48 hrs by luciferase reporter gene assay; type: cell-based
T3 sequence (P23204 whole entry): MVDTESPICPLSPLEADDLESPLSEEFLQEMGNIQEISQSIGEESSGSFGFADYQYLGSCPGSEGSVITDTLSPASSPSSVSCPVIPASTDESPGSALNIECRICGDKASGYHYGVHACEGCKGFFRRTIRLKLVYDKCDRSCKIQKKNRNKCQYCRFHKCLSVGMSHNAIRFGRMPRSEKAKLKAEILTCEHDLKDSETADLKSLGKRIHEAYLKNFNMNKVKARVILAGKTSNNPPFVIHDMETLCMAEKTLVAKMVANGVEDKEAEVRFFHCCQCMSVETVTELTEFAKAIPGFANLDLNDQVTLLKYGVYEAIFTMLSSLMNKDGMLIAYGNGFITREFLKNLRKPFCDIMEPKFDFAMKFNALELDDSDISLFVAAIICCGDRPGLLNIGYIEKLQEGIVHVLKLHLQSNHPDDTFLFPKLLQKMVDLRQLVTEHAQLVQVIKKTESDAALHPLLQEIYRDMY

[4] = molecular target: T4, Peroxisome proliferator-activated receptor gamma (Homo sapiens, UniProt P37231); type: cell-based, CHO-K1
T4 sequence (P37231 whole entry): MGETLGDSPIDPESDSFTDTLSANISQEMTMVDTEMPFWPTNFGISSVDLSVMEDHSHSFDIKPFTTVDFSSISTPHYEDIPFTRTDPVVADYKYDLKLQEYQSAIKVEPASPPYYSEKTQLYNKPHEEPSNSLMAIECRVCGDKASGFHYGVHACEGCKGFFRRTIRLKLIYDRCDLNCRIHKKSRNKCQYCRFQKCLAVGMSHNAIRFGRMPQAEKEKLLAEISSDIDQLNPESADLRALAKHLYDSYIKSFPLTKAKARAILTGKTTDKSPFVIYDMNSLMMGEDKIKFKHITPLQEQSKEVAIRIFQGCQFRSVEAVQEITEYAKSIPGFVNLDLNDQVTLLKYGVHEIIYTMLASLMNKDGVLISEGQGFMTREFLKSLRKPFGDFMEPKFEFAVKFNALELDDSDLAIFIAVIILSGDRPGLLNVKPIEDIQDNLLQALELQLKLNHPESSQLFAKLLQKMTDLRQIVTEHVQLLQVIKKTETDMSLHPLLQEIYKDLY

SMILES	EC50 [1] [µM]	Ratio EC50 (Mus musculus)	EC50 [2] [µM]	EC50 [3] [µM]	EC50 [4] [µM]
Cc1cc(CC(=O)O)cc(CN2CCN(c3nc4ccc(C(F)(F)F)cc4s3)[C@@H](C)C2)c1	0.039	69	1.8	3.9	3.1
Cc1cc(CC(=O)O)cc(CN2CCN(c3nc4ccc(C(F)(F)F)cc4s3)[C@H](C)C2)c1	0.024	74	1.6	3.7	1.2
